This assay relates to Tribonema sp. CCAP880/2. Description: Poison Plate Assay (algal growth inhibition, MIC and synergy index). The assay is classed as cell-based. As to conditions: 336 h, BG11 liquid medium, 24-well plates, 21° C., evaluation after 2 weeks of exposure, total ppm of combination at given ratio (I) to (II), read-out: MIC-values in ppm (minimum inhibitory concentration). The procedure: • General procedure: to each well of a 24-well microtiter plate, 1990 μl BG11 medium containing the test compounds in one of the concentrations of a dose series is added. The liquid freshwater mineral medium is inoculated by adding an aliquot of an actively growing, 3 week old liquid BG11 culture of algae and incubated at 21° C., 65% relative humidity, 1000 Lux 16 hr/day. The growth is evaluated after two weeks. • Test compounds: 4-bromo-2-(4-chloro-phenyl)-5-(trifluoromethyl)-1H-pyrrole-3-carbonitrile as component (I) butylBIT as component (II); • Stock solution: 8000 and 80.000 ppm in DMSO
• Test combinations: • Concentrations: 1.6-1.2-0.9-0.68-0.51-0.38-0.29-0.21-0.16-0.12-0.09-0.07 ppm • Culture medium: algae: BG 11 liquid mineral medium • Experimental set up: 24-well plates • Species of algae: Tribonema sp. CCAP880/2 • Inoculum: algae: […] of a 1/10 dilution in BG 11 of a two week old culture • Culture conditions: 21° C., 65% relative humidity, 1000 lux, 16 hour photoperiod • Evaluation: algae: after 2 weeks of exposure
Synergism between component (I) and one of the components (II) was determined by a commonly used and accepted method described by Kull F. C. et al. in Applied Microbiology, 9, 538-541 (1961) using the Synergy Index, which is calculated as follows for two compounds A and B: […]

The text below walks through data of patent US20110237632A1, “ANTIFOULING COMBINATION COMPRISING 4-BROMO-2-(4- CHLOROPHENYL)-5-(TRIFLUOROMETHYL)-1H-PYRROLE-3-CARBONITRILE” (priority 2008, published 2011).

As for `CCCCn1sc2ccccc2c1=O` [(I) + (II) 0 + 100, 2-butyl-1,2-benzisothiazol-3(2H)one], the MIC was 2.1 µg/mL.
